We go through 1 molecule from ChEMBL document CHEMBL5726710, “Thiazolopyrrolidine inhibitors of ROR- γ” (2018).

The target in this assay is T1, Nuclear receptor ROR-gamma (Homo sapiens, UniProt P51449).
T1 sequence (P51449 whole entry): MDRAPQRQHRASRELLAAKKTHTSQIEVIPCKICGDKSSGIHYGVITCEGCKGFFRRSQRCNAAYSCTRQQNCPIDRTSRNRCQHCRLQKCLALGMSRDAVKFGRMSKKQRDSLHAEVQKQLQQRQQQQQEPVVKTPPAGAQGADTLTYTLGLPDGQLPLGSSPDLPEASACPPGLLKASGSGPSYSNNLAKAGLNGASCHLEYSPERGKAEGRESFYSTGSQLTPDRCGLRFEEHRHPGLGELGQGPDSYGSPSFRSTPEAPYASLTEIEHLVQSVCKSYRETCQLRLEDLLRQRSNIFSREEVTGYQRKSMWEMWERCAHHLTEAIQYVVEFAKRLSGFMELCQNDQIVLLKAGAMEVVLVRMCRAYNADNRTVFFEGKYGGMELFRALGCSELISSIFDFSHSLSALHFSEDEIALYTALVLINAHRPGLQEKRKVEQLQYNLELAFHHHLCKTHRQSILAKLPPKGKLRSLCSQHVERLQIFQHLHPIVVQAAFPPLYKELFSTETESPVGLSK
The experiment in a line: Binding Assay: Compounds of the present invention were tested for ability to bind to RORγ in a cell-free competition assay with commercially available radio-ligand (RL), 25-hydroxy [26,27-3H]— cholesterol (PerkinElmer, Cat. # NET674250UC), for a ligand binding site on a recombinant RORγ Ligand Binding Domain (LBD) protein expressed as a 6×His-Glutathione-S-Transferase (GST) fusion (“6×His” disclosed as SEQ ID NO: 2). The assay was performed in 96-well SPA plates (PerkinElmer, Cat. #1450-401) in 50 mM HEPES buffer, pH 7.4, containing 150 mM NaCl, 5 mM MgCl2, 10% (v/v) glycerol, 2 mM CHAPS, 0.5 mM β-octylglucopyranoside and 5 mM DTT. Tested compounds were dissolved in DMSO, and semi-log (3.162×) serial dilutions of the compounds were prepared in the same solvent. Two μL of the DMSO solutions were mixed with 28 μL of 8.6 nM 25-hydroxy [26,27-3H]— cholesterol and 50 μL of 24 nM RORγ LBD. The plate was shaken at 700 rpm for 20 min and incubated for 10 min at rt, after which 40 μL of poly-Lys YSi SPA beads (PerkinElmer, Cat. # RPNQ0010) were added to achieve 50 μg of the beads per well. The plate was incubated on an orbital shaker for 20 min and then for 10 min without agitation at rt. SPA signal for tritium beta radiation was registered on PerkinElmer Microbeta plate reader. […].

One may read the Ki as the dissociation constant of the complex between target and ligand, obtained from inhibition or displacement. Take `CC(C)[C@H]1c2nc(NS(=O)(=O)c3cccc(C(F)(F)F)c3)sc2CN1Cc1ccc(Cl)cc1`: the Ki is more than 1 µM.
